This is an account of results in patent publication US20240300904A1, “PYRIDAZINONES FOR THE TREATMENT OR PREVENTION OF HYPERTENSION” (UNIVERSITETET I OSLO, priority 2021, published 2024).

The target in series [1] is T1, human (h) natriuretic peptide receptor A (hNPR-A) (Homo sapiens, UniProt P16066).
T1 construct: expressed in transfected cells
T1 sequence (P16066 33-1061): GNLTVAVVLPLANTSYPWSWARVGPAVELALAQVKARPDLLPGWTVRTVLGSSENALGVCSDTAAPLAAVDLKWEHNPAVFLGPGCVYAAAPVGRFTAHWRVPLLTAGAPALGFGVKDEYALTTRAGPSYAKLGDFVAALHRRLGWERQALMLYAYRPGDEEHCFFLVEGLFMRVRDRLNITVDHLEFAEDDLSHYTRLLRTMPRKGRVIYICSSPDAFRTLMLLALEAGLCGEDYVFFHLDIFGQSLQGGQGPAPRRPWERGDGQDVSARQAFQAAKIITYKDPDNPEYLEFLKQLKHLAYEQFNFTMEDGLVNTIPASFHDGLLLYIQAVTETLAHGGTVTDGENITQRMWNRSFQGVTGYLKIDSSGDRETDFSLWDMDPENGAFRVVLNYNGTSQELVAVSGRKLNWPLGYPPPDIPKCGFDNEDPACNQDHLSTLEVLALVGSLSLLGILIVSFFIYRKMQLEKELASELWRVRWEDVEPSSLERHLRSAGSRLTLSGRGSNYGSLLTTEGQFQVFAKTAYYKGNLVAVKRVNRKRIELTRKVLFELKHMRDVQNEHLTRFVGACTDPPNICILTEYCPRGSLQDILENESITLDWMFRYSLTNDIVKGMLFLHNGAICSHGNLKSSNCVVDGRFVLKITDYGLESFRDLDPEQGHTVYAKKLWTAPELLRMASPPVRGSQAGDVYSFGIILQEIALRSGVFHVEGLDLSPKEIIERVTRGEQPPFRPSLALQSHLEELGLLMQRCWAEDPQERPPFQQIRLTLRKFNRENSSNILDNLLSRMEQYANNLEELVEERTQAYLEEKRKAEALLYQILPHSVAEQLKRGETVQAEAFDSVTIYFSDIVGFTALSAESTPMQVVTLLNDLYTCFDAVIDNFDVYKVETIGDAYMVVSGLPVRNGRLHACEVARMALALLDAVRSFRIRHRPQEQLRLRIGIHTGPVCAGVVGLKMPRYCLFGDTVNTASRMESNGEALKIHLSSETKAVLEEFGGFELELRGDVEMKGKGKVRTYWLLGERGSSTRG
T1 sequence (P16860 103-134 partner limits assumed): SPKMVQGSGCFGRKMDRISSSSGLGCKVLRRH
Kind of series: AlphaScreen assay for cGMP: BNP-mediated NPR-A activity (cGMP production). The format is cell-based. The settings on record: conc. response of compound + 0.1 nM BNP; for EC50: NPR-A-expressing HEK293 cells, read-out: -LogEC50 (compound) (converted); for Emax: percentage of maximum BNP-mediated cGMP production, read-out: Max Response. The method, then:
(§1) QBIHEK293A cells stably transfected with human (h) natriuretic peptide receptor A (hNPR-A) and hNPR-B were made as described in Bach et al., Naunyn Schmiedebergs Arch. Pharmacol. 2014; 387:5-14. Cells were grown in DMEM (Dulbecco's Modified Eagle's Medium, Gibco®, ThermoFischer Scientific) supplemented with 10% Fetal Bovine Serum (FBS), 100 U/ml penicillin, 0.1 mg/ml streptomycin, and 0.4 mg/ml G418 (geneticin) as selection antibiotic.
(§2) The AlphaScreen assay for cGMP (Perkin Elmer) was performed as described in Bach et al. (see above). NPR-A and NPR-B expressing HEK293 cells were split the day before the experiment and harvested using an EDTA solution (Versene, Invitrogen, ThermoFischer Scientific). A final concentration of 6000 cells/well was re-suspended in stimulation buffer (5 mM HEPES in HBSS at pH 7.4, 0.1% BSA) with IBMX (0.7 mM final). Compounds were dissolved in stimulation buffer and added to wells in increasing concentrations. Cells were incubated with the indicated compounds 20 minutes before addition of agonists (human BNP, human CNP or human proBNP) in various concentrations. Cells were stimulated for 20 minutes with agonist before the reactions were stopped (i.e. cells lysed) by adding the AlphaScreen Acceptor bead mix (Acceptor beads-anti-cGMP antibody and 0.5% Tween-20 in 5 mM HEPES buffer at pH 7.4). After 1 hour incubation, the Donor bead mix (Donor beads, biotinylated cGMP, 0.5% Tween-20 in 5 mM HEPES buffer at pH 7.4) was added (40 μl total volume) and incubation continued for 2 hours. The luminescence signals were analyzed quantitatively by reading of the plates on the EnVision® Multilabel Plate Reader (Perkin Elmer) using AlphaScreen emission 570 nm filter.

Series [2] has as its target T2, human (h) natriuretic peptide receptor A (hNPR-A) (Homo sapiens, UniProt P16066).
T2 construct: expressed in transfected cells
T2 sequence (P16066 33-1061): T1 sequence (P16066 33-1061)
T2 sequence (P16860 27-134 partner): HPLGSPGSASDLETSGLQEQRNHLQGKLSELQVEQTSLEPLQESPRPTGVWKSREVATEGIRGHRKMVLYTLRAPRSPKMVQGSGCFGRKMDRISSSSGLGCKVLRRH
As to the kind of experiment: AlphaScreen assay for cGMP: proBNP-mediated NPR-A activity. The format is cell-based. The settings on record: conc. response of compound + 2 nM proBNP. Here is the method:
as §1
as §2, with “Cells were stimulated for 20 minutes with agonist before the reactions were stopped (i.e. cells lysed) by adding the AlphaScreen Acceptor bead mix (Acceptor beads-anti-cGMP antibody and 0.5% Tween-20 in 5 mM HEPES buffer at pH 7.4). After 1 hour incubation, the Donor bead mix (Donor beads, biotinylated cGMP, 0.5% Tween-20 in 5 mM HEPES buffer at pH 7.4) was added (40 μl total volume) and incubation continued for 2 hours.” left out
For orientation: Bead proximity is the source of the signal in Alpha formats.

For a further series, the target named is T3, NPR-A (Homo sapiens, UniProt P16066).
T3 construct: expressed in transfected cells; host or cells: HEK293 cells expressing NPR-A
T3 sequence (P16066 33-1061): T1 sequence (P16066 33-1061)
As to the kind of experiment: Whole-cell binding assays with 125I-ANP in intact NPR-A expressing HEK293 cells. The method, then: as §1
Binding assays were carried out in intact NPR-A expressing HEK293 cells as described in Dickey et al., J Biol Chem. 2009; 284: 19196-202.

A further series relates to HeLa cells. Kind of series: MTT assay (cytotoxicity). The format is cell-based. The settings on record: 24 and 48 h, compared with compounds 3 and 11. Here is the method: Cells were incubated for 24 and 48 h with increasing concentrations of the indicated compound. The data represent formazan formation (absorbance) as a percentage of the negative control (1% DMSO).
The MTT (3-(4,5-dimethylthiazol-2-yl)-2,5-diphenyltetrazolium bromide) tetrazolium reduction assay was used to measure cytotoxicity of the compounds in vitro. Viable cells with active metabolism convert MTT into a purple colored formazan product with an absorbance maximum near 570 nm. HeLa cells were plated in 96-well plates in culture medium (DMEM (Dulbecco's Modified Eagle's Medium, Gibco®, ThermoFischer Scientific) supplemented with 10% Fetal Bovine Serum (FBS), 100 U/ml penicillin, 0.1 mg/ml streptomycin) the day before experiments. Cells were incubated for 24 or 48 h at 37° C. with increasing concentrations of each compound (in 1% DMSO). 1% DMSO and 20 mM H2O2 in culture medium were used as negative and positive control, respectively. MTT solution at a final concentration of 0.45 mg/ml was added to the wells and cells incubated for 1 to 4 hours at 37° C. Solubilization solution (40% (vol/vol) dimethylformamide (DMF), 2% (vol/vol) glacial acetic acid and 16% (wt/vol) sodium dodecyl sulfate (SDS)) was added to each well to dissolve formazan crystals. Absorbance was measured at 570 nm.
(Formazan colour is commonly taken as a measure of viable cells.)

In the case of `O=C(Cn1ncc(Cl)c(Cl)c1=O)NC1CC1c1cnn(-c2ccccc2)c1` (racemic) [Compound 18, rac-2-(4,5-dichloro-6-oxopyridazin-1(6H)-yl)-N-((1R,2S)-2-(1-phenyl-1H-pyrazol-4-yl)cyclopropyl)acetamide], in series [1], the EC50 is 200 nM and the Emax came to 30.7%.

For `O=C(Cn1ncc(Cl)c(Cl)c1=O)C12CC3CC(CC(C3)C1)C2` [Compound 1], in series [1], the EC50 is 2510 nM and the Emax was determined as 53.1%.

As for `O=C(Cn1ncc(Cl)c(Cl)c1=O)c1ccc(Cl)cc1` [Compound 2], the EC50 is 251 nM in series [1]; 1000 nM in series [2] (NPR-A-expressing HEK293 cells, read-out: -LOGEC50 (compound) (converted)); 2 nM at NPR-A (conc. response compound + 50 pM 125I-ANP, NPR-A HEK293 cells, read-out: -LogEC50 (compound) (converted)). The Emax is 45.3% in series [1]; 99% in series [2] (percentage of maximum proBNP-mediated cGMP production, read-out: Max response); 173% at NPR-A (compound + 50 pM 125I-ANP, response of 50 pM 125I-ANP defined as 100%, read-out: Max Response). The “Fold change in Bmax” value on NPR-A (saturation binding, conc. response 125I-ANP + 10 μM compound) is reported as 2.3. Also, the “toxicity in MTT assay relative to corresponding dichloro compounds” value with HeLa cells is recorded as “lower toxicity”.

Take `O=C(Cn1nccc(Cl)c1=O)c1ccc(Cl)cc1` [Compound 3, 4-chloro-2-(2-(4-chlorophenyl)-2-oxoethyl)pyridazin-3(2H)-one]: in series [1], the EC50 is 12600 nM and the Emax turned out to be 48.6%.

For `O=C(Cn1ncc(Cl)cc1=O)c1ccc(Cl)cc1` [Compound 4, 5-chloro-2-(2-(4-chlorophenyl)-2-oxoethyl)pyridazin-3(2H)-one], in series [1], the EC50 is 5010 nM and the Emax was determined as 35.2%.

Consider `COc1ccc(C(=O)Cn2ncc(Cl)c(Cl)c2=O)cc1` [Compound 5, 4,5-dichloro-2-(2-(4-methoxyphenyl)-2-oxoethyl) pyridazin-3(2H)-one], for which, in series [1], the EC50 was 3980 nM and the Emax came to 38.6%.

For `N#Cc1ccc(C(=O)Cn2ncc(Cl)c(Cl)c2=O)cc1` [Compound 6, 4-(2-(4,5-dichloro-6-oxopyridazin-1(6H)-yl)acetyl) benzonitrile], in series [1], the EC50 was 2510 nM and the Emax stood at 44.1%.

For the compound `O=C(Cn1ncc(Cl)c(Cl)c1=O)c1ccc(Cl)s1` [Compound 7], in series [1], the EC50 was 251 nM and the Emax was 33.4%.

With `O=C(Cn1ncc(Cl)cc1=O)c1ccc(Cl)s1` [Compound 8, 5-chloro-2-(2-(5-chlorothiophen-2-yl)-2-oxoethyl) pyridazin-3(2H)-one], in series [1], the EC50 was 1580 nM and the Emax amounted to 27%.

As to `O=C(Cn1ncc(Cl)c(Cl)c1=O)c1ccc2c(c1)CCCC2` [Compound 9], in series [1], the EC50 was 1260 nM and the Emax turned out to be 27.7%.

`O=C(Cn1ncc(Br)c(Br)c1=O)c1ccc(Cl)cc1` [Compound 10]: in series [1], the EC50 is 79.4 nM and the Emax came to 37%.

Regarding `O=C(Cn1ncc(Cl)c(Cl)c1=O)c1ccc(Cl)cc1Cl` [Compound 11, 4,5-dichloro-2-[2-(2,4-dichlorophenyl)-2-oxo-ethyl]pyridazin-3-one], in series [1], the EC50 is 200 nM and the Emax is 42.5%.

Turning to `O=C(Cn1ncc(Cl)c(Cl)c1=O)c1ccc(Cl)c(F)c1` [Compound 12, 4,5-dichloro-2-[2-(4-chloro-3-fluoro-phenyl)-2-oxo-ethyl]pyridazin-3-one], in series [1], the EC50 was 398 nM and the Emax came to 44.3%.

As to `Cc1cc(Cl)ccc1C(=O)Cn1ncc(Cl)c(Cl)c1=O` [Compound 13, 4,5-dichloro-2-[2-(4-chloro-2-methyl-phenyl)-2-oxo-ethyl]pyridazin-3-one], in series [1], the EC50 is 100 nM and the Emax amounted to 41%.

As to `Cc1cc(C(=O)Cn2ncc(Cl)c(Cl)c2=O)ccc1Cl` [Compound 14, 4,5-dichloro-2-[2-(4-chloro-3-methyl-phenyl)-2-oxo-ethyl]pyridazin-3-one], in series [1], the EC50 is 2510 nM and the Emax was 45.4%.

With `CC(C)c1ccc(CCNC(=O)Cn2ncc(Cl)c(Cl)c2=O)cc1` [Compound 15, 2-(4,5-dichloro-6-oxopyridazin-1(6H)-yl)-N-(4-isopropylphenethyl)acetamide], in series [1], the EC50 is 794 nM and the Emax was 27.8%.

With `O=C(Cn1ncc(Cl)c(Cl)c1=O)NCCc1cnn(-c2ccccc2)c1` [Compound 16, 2-(4,5-dichloro-6-oxopyridazin-1(6H)-yl)-N-(2-(1-phenyl-1H-pyrazol-4-yl)ethyl)acetamide], in series [1], the EC50 is 794 nM and the Emax came out at 41%.

For `O=C(Cn1ncc(Cl)c(Cl)c1=O)NCCc1c(Cl)cccc1Cl` [Compound 17, 2-(4,5-dichloro-6-oxopyridazin-1(6H)-yl)-N-(2,6-dichlorophenethyl)acetamide], in series [1], the EC50 was 794 nM and the Emax was found to be 39.4%.

For the compound `O=C(Cn1ncc(Cl)c(Cl)c1=O)Nc1cnn(-c2ccccc2)c1` [Compound 19, 2-(4,5-dichloro-6-oxopyridazin-1(6H)-yl)-N-(1-phenyl-1H-pyrazol-4-yl)acetamide], in series [1], the EC50 is 1000 nM and the Emax is 45.7%.

As for `O=C(Cn1ncc(Cl)c(Cl)c1=O)NCc1cnn(-c2ccccc2)c1` [Compound 20, 2-(4,5-dichloro-6-oxopyridazin-1(6H)-yl)-N-((1-phenyl-1H-pyrazol-4-yl)methyl)acetamide], in series [1], the EC50 is 6310 nM and the Emax was determined as 49.4%.
